Marks after values point to notes of the source that are not given here.
How the values were obtained:
[1] = system: neutrophils; details: disclosed by Lee et al., Biochem. Biophys. Res. Commun. 1991; cited from earlier work
[2] = system: conjunctival EPO activity; assay: Mouse late-phase allergy model (OVA-induced allergic conjunctivitis), conjunctival EPO activity assay; assay type: in vivo, mouse (female BALB/c); details: for EPO Activity (ng/ml/mg tissue) ± S.D.: single 5 μl topical drop O.D. BID, conjunctival EPO activity at 24 hrs post-challenge, mean ± S.D.
Procedure: Active Sensitization and Induction of Allergic Conjunctivitis (AC)
Female BALB/c mice, 6 to 9 months old (Charles River Labs), were given a single intraperitoneal injection of 100 μg chicken ovalbumin (OVA; Sigma) which had been absorbed to 5 mg of alum (Pierce Chemical) as an adjuvant or 5 mg alum only (unsensitized group). On day 14 after sensitization, all mice were challenged with a single topical drop O.D. of 1 mg OVA dissolved in 5 μl PBS.
Drugs or vehicles were administered to mice as a single 5 μl drop O.D. at 60 min before challenge and again at 16 hrs after challenge (BID dosing). Mice were euthanized at 24 hrs after challenge.
Mice were euthanized at 24 hrs after topical challenge and upper and lower eyelids containing palpebral conjunctiva were excised and immediately frozen on dry ice. Samples were weighed frozen and then thawed and homogenized on ice in 2 ml of 50 mM HEPES buffer, pH 6.5. Samples were pelleted at 4000 rpm for 20 min at 4° C. and supernatants were discarded. To each pellet, 1 ml of 0.5% cetyltrimethylammonium chloride (CTAC) was added and samples were vortexed vigorously. Samples were then subjected to three freeze-thaw cycles between −80° C. and 37° C. After final thaw, samples were sonicated on ice for 15-30 sec and pelleted at 4000 rpm for 20 min at 4° C. EPO activity assay was performed on supernatants.
For the EPO activity assay, 75 μl of each sample were added in triplicate to wells of a 96-well clear flat-bottomed microplate. 75 μl of EPO substrate solution [6 mM o-phenylenediamine (OPD), 8.8 mM H2O2, and 6 mM KBr in 50 mM HEPES, pH 6.5] were then added to each well using a multichannel pipetter. The reaction was allowed to run for 3 min and was stopped by addition of 150 μl of 4M H2SO4. Optical density at 490 nm (OD490) was read on a Bio-Tek Synergy. HT plate reader. […] 75 μl triplicates of each standard were used on each run of the assay. Linear regression was determined for the resulting plot of [EPO] vs OD490. Final [EPO] in each sample was determined by solving for x in the equation y=m*x+b, where y=OD490, m=[…].
Groups of means were compared using Student's unpaired t-test or Dunnett's t-test where appropriate. […] Data are expressed as mean±standard deviation.

Structure (SMILES)	inhibition of LTB4-induced chemotaxis of neutrophils [1]	inhibition of conjunctival EPO activity (in words) ([2]; all three doses (0.001%, 0.01%, and 0.1% solutions), 24 hrs post-challenge, efficacy comparable to 0.1% dexamethasone)	EPO Activity (ng/ml/mg tissue) ± S.D. ([2]; dose 0.001%)	EPO Activity (ng/ml/mg tissue) ± S.D. ([2]; dose 0.01%)	EPO Activity (ng/ml/mg tissue) ± S.D. ([2]; dose 0.1%)
CCCCC[C@H](O)/C=C/C=C\C=C\C=C\[C@@H](O)[C@@H](O)CCCC(=O)O [lipoxin A4, Lipoxin A4, reference compound]	inhibit	–	–	–	–
COC(=O)CCC[C@H](O)[C@H](O)CO [compound 1]	as potently as lipoxin A4	significantly inhibited	5.2 ± 2.5^c,d ng/ml/mg tissue	4.8 ± 1.2^c,d ng/ml/mg tissue	3.2 ± 1.0^c,d ng/ml/mg tissue
C[C@@H]1C[C@H]2[C@@H]3CCC4=CC(=O)C=C[C@]4(C)[C@@]3(F)[C@@H](O)C[C@]2(C)[C@@]1(O)C(=O)CO [dexamethasone, reference compound]	–	–	–	–	4.0 ± 0.5^c ng/ml/mg tissue
CCCCC[C@H](O)[C@H](O)CO [compound 2]	as potently as lipoxin A4	–	–	–	–
